Assay results published in patent EP0551518A1, “QUINOLINECARBOXYLIC ACID DERIVATIVE” (NIPPON SHINYAKU COMPANY, LIMITED, priority 1990, dated 1992).
Converted amounts (≈) assume the structure as drawn. Read-outs that look alike come from different tables or passages of the source.

Key:
Format in all cases: cell-based
[1] = system: S. aureus OWPH 1773; assay: Determination of minimal inhibitory concentration (MIC)-2, new quinolone-resistant MRSA; conditions: Staphylococcus aureus, OWPH1773, 18 h; S. aureus OWPH 1773, new quinolone-resistant and methicillin-resistant; same procedure as Test Example 1
Protocol: (§1) Method: MIC was determined by the agar plate dilution method in accordance with the standard protocol of Japan Society of Chemotherapy (cf. Chemotherapy 29 (1), 76-79, 1981). Each bacterial culture obtained by 18-hour incubation in a sensitivity assay bouillon medium at 37°C was diluted to 10⁶ CFU/ml with the same medium. Using a microplanter, a sensitivity assay agar medium containing the test drug was inoculated with the diluted culture and incubated at 37°C for 18 hours. The MIC value was then determined. As reference drugs, 6-fluoro-1-methyl-4-oxo-7-(1-piperazinyl)-4H-[1,3]thiazeto[3,2-a]quinoline-3-carboxylic acid (referred to as control), ciprofloxacin (CPFX) and ofloxacin (OFLX) were used.
(§2) The antibacterial activity of the compounds obtained in Example 4, Example 25 and Example 26 of the present invention was assayed by the same procedure as in Test Example 1. As reference drugs, 6-fluoro-1-methyl-4-oxo-7-(1-piperazinyl)-4H-[1,3]-thiazeto[3,2-a]quinoline-3-carboxylic acid (referred to as Control), norfloxacin (NFLX) and tosufloxacin (TFLX) were used.

[2] = system: S. aureus Sh 54; assay: as above; conditions: Staphylococcus aureus, SH54, 18 h; S. aureus Sh 54, new quinolone-resistant and methicillin-resistant; same procedure as Test Example 1
Protocol: as §1, §2

[3] = system: S. aureus Sh 2; assay: as above; conditions: Staphylococcus aureus, SH2, 18 h; S. aureus Sh 2, new quinolone-resistant and methicillin-resistant; same procedure as Test Example 1
Protocol: as §1, §2

[4] = system: S. aureus OWPH 1799; assay: as above; conditions: Staphylococcus aureus, OWPH1799, 18 h; S. aureus OWPH 1799, new quinolone-resistant and methicillin-resistant; same procedure as Test Example 1
Protocol: as §1, §2

[5] = system: S. aureus OWPH 1770; assay: as above; conditions: Staphylococcus aureus, OWPH1770, 18 h; S. aureus OWPH 1770, new quinolone-resistant and methicillin-resistant; same procedure as Test Example 1
Protocol: as §1, §2

[6] = system: S. aureus OWPH 2134; assay: as above; conditions: Staphylococcus aureus, OWPH2134, 18 h; S. aureus OWPH 2134, new quinolone-resistant and methicillin-resistant; same procedure as Test Example 1
Protocol: as §1, §2

[7] = system: S. aureus OWPH 2127; assay: as above; conditions: Staphylococcus aureus, OWPH2127, 18 h; S. aureus OWPH 2127, new quinolone-resistant and methicillin-resistant; same procedure as Test Example 1
Protocol: as §1, §2

[8] = system: S. aureus OWPH 1796; assay: as above; conditions: Staphylococcus aureus, OWPH1796, 18 h; S. aureus OWPH 1796, new quinolone-resistant and methicillin-resistant; same procedure as Test Example 1
Protocol: as §1, §2

[9] = system: S. aureus OWPH 1793; assay: as above; conditions: Staphylococcus aureus, OWPH1793, 18 h; S. aureus OWPH 1793, new quinolone-resistant and methicillin-resistant; same procedure as Test Example 1
Protocol: as §1, §2

[10] = system: S. aureus Sh 8; assay: as above; conditions: Staphylococcus aureus, SH8, 18 h; S. aureus Sh 8, new quinolone-resistant and methicillin-resistant; same procedure as Test Example 1
Protocol: as §1, §2

[11] = system: S. aureus Sh 47; assay: as above; conditions: Staphylococcus aureus, SH47, 18 h; S. aureus Sh 47, new quinolone-resistant and methicillin-resistant; same procedure as Test Example 1
Protocol: as §1, §2

[12] = system: S. aureus OWPH 2124; assay: as above; conditions: Staphylococcus aureus, OWPH2124, 18 h; S. aureus OWPH 2124, new quinolone-resistant and methicillin-resistant; same procedure as Test Example 1
Protocol: as §1, §2

[13] = system: S. aureus OWPH 2128; assay: as above; conditions: Staphylococcus aureus, OWPH2128, 18 h; S. aureus OWPH 2128, new quinolone-resistant and methicillin-resistant; same procedure as Test Example 1
Protocol: as §1, §2

[14] = system: S. aureus Sh 44; assay: as above; conditions: Staphylococcus aureus, SH44, 18 h; S. aureus Sh 44, new quinolone-resistant and methicillin-resistant; same procedure as Test Example 1
Protocol: as §1, §2

[15] = system: S. aureus OWPH 1792; assay: as above; conditions: Staphylococcus aureus, OWPH1792, 18 h; S. aureus OWPH 1792, new quinolone-resistant and methicillin-resistant; same procedure as Test Example 1
Protocol: as §1, §2

[16] = system: S. aureus OWPH 2133; assay: as above; conditions: Staphylococcus aureus, OWPH2133, 18 h; S. aureus OWPH 2133, new quinolone-resistant and methicillin-resistant; same procedure as Test Example 1
Protocol: as §1, §2

[17] = system: S. aureus OWPH 1786; assay: as above; conditions: Staphylococcus aureus, OWPH1786, 18 h; S. aureus OWPH 1786, new quinolone-resistant and methicillin-resistant; same procedure as Test Example 1
Protocol: as §1, §2

[18] = system: Bacillus subtilis ATCC 6633; assay: Determination of minimal inhibitory concentration of growth (MIC)-1, agar plate dilution method; conditions: ATCC6633; Bacillus subtilis ATCC 6633; agar plate dilution, 10⁶ CFU/ml, 37°C, 18 hours; read-out: MIC
Protocol: as §1

[19] = system: Micrococcus luteus ATCC 9341; assay: as above; conditions: ATCC9341; Micrococcus luteus ATCC 9341; agar plate dilution, 10⁶ CFU/ml, 37°C, 18 hours; read-out: MIC
Protocol: as §1

[20] = system: Proteus vulgaris HX-19; assay: as above; conditions: Proteus vulgaris, HX19, 18 h, Proteus vulgaris HX-19; agar plate dilution, 10⁶ CFU/ml, 37°C, 18 hours; read-out: MIC
Protocol: as §1

[21] = system: Pseudomonas aeruginosa IFO 3445; assay: as above; conditions: Pseudomonas aeruginosa, IFO3445, 18 h, Pseudomonas aeruginosa IFO 3445; agar plate dilution, 10⁶ CFU/ml, 37°C, 18 hours; read-out: MIC
Protocol: as §1

[22] = system: Staphylococcus epider-midis IFO 12993; assay: as above; conditions: Staphylococcus, IFO12993, 18 h, Staphylococcus epider-midis IFO 12993; agar plate dilution, 10⁶ CFU/ml, 37°C, 18 hours; read-out: MIC
Protocol: as §1

[23] = system: Enterococcus faecalis ATCC 29212; assay: as above; conditions: ATCC29212; Enterococcus faecalis ATCC 29212; agar plate dilution, 10⁶ CFU/ml, 37°C, 18 hours; read-out: MIC
Protocol: as §1

[24] = system: Staphylococcus aureus OWPH 2125 (MRSA, PCA^r ); assay: as above; conditions: Staphylococcus aureus OWPH 2125 (MRSA, PCA^r), agar plate dilution, 10⁶ CFU/ml, 37°C, 18 hours
Protocol: as §1

[25] = system: Staphylococcus aureus OWPH 1984 (MRSA); assay: as above; conditions: Staphylococcus aureus, MRSA, 18 h, Staphylococcus aureus OWPH 1984 (MRSA); agar plate dilution, 10⁶ CFU/ml, 37°C, 18 hours; read-out: MIC
Protocol: as §1

[26] = system: Staphylococcus aureus Smith; assay: as above; conditions: Staphylococcus aureus Smith; agar plate dilution, 10⁶ CFU/ml, 37°C, 18 hours; read-out: MIC
Protocol: as §1

[27] = system: Staphylococcus aureus 209-P JC-1; assay: as above; conditions: Staphylococcus aureus 209-P JC-1, agar plate dilution, 10⁶ CFU/ml, 37°C, 18 hours
Protocol: as §1

[28] = system: Escherichia coli KC-14; assay: as above; conditions: Escherichia coli, KC14, 18 h, 10⁶ CFU/ml, 37°C, read-out: MIC
Protocol: as §1

Row | MIC [1] [µg/mL] | MIC [2] [µg/mL] | MIC [3] [µg/mL] | MIC [4] [µg/mL] | MIC [5] [µg/mL] | MIC [6] [µg/mL] | MIC [7] [µg/mL] | MIC [8] [µg/mL] | MIC [9] [µg/mL] | MIC [10] [µg/mL] | MIC [11] [µg/mL] | MIC [12] [µg/mL] | MIC [13] [µg/mL] | MIC [14] [µg/mL] | MIC [15] [µg/mL] | MIC [16] [µg/mL] | MIC [17] [µg/mL] | MIC [18] [µg/mL] | MIC [19] [µg/mL] | MIC [20] [µg/mL] | SMILES | also measured
1 | 100 (≈ 286 µM) | > 100 | 100 (≈ 286 µM) | > 100 | 50 (≈ 143 µM) | 50 (≈ 143 µM) | > 100 | 25 (≈ 71.6 µM) | > 100 | 100 (≈ 286 µM) | 100 (≈ 286 µM) | 12.5 (≈ 35.8 µM) | > 100 | 50 (≈ 143 µM) | 100 (≈ 286 µM) | 25 (≈ 71.6 µM) | > 100 | 0.1 (≈ 0.286 µM) | 1.56 (≈ 4.46 µM) | 0.025 (≈ 0.0716 µM) | CC1Sc2c(C(=O)O)c(=O)c3cc(F)c(N4CCNCC4)cc3n21 (centres unmarked) [Control, 6-fluoro-1-methyl-4-oxo-7-(1-piperazinyl)-4H-[1,3]thiazeto[3,2-a]quinoline-3-carboxylic acid, reference compound] | MIC [21]: 0.05 µg/mL (≈ 0.143 µM); MIC [22]: 0.2 µg/mL (≈ 0.572 µM); MIC [23]: 0.39 µg/mL (≈ 1.12 µM); MIC ([24]; Staphylococcus aureus, MRSA, 18 h, read-out: MIC): 12.5 µg/mL (≈ 35.8 µM); MIC [25]: 0.39 µg/mL (≈ 1.12 µM); MIC [26]: 0.1 µg/mL (≈ 0.286 µM); MIC ([27]; Staphylococcus aureus, 209P, 18 h, read-out: MIC): 0.1 µg/mL (≈ 0.286 µM); MIC [28]: 0.012 µg/mL (≈ 0.0343 µM)
2 | 0.78 (≈ 2.19 µM) | 0.78 (≈ 2.19 µM) | 0.78 (≈ 2.19 µM) | 1.56 (≈ 4.38 µM) | 0.2 (≈ 0.561 µM) | 0.78 (≈ 2.19 µM) | 1.56 (≈ 4.38 µM) | 0.78 (≈ 2.19 µM) | 1.56 (≈ 4.38 µM) | 0.78 (≈ 2.19 µM) | 0.78 (≈ 2.19 µM) | 0.78 (≈ 2.19 µM) | 1.56 (≈ 4.38 µM) | 0.78 (≈ 2.19 µM) | 0.78 (≈ 2.19 µM) | 0.78 (≈ 2.19 µM) | 1.56 (≈ 4.38 µM) | ≤ 0.006 | 0.2 (≈ 0.561 µM) | 0.012 (≈ 0.0337 µM) | CC1Sc2c(C(=O)O)c(=O)c3cc(F)c(-c4ccc(N)cc4)cc3n21 (centres unmarked) [Example 4, 7-(4-Aminophenyl)-6-fluoro-1-methyl-4-oxo-4H-[1,3]thia-zeto[3,2-a]quinoline-3-carboxylic acid] | MIC [21]: 0.1 µg/mL (≈ 0.281 µM); MIC [22]: ≤ 0.006 µg/mL; MIC [23]: 0.05 µg/mL (≈ 0.14 µM); MIC [24]: ≤ 0.006 μ g/ml; MIC [25]: ≤ 0.006 µg/mL; MIC [26]: ≤ 0.006 µg/mL; MIC [27]: 0.012 μ g/ml; MIC [28]: 0.025 µg/mL (≈ 0.0702 µM)
